Experiment [1] has as its system calcium channels in dorsal root ganglion (DRG) neurons. It is filed as cell-based. Conditions: rat DRG neurons.
Experimental: Intact neurons of rat dorsal root ganglia (DRG) were used for whole-cell patch-clamp recordings.
DRGs were isolated from adult Wistar rats (200 ± 300 g) and neurons cultured as described by Lindsay (1988) [35] with minor modifications. The neurons were isolated and washed by gravity in phosphate-buffered saline (PBS). The cells were than incubated with collagenase type IV (sigma, St. Louis, MO, USA) solution (5 mL of Dulbecco’s modified Eagle’s medium—DMEM; 10% v/v fetal bovine serum; penicillin 200 units/mL—streptomycin 200 μg/mL; 12.5 mg of collagenase type IV) for 90 min at 37 °C. After that, ganglions were washed 3 times by gravity in PBS and trypsin solution (2500–6000 BAEE U/ML, sigma, St. Louis, MO, USA) was added. In order to dissociate the DRG neurons, the ganglions were taken up and down with the use of a fine tipped transfer pipette. Cells were then incubated with the trypsin solution for 10 min at 37 °C. After the incubation period, 1 mL of bovine serum albumin (BSA) solution (16% v/v in PBS) was added and cells were more firmly dissociated. The cell suspension was added on the top of 3 mL BSA solution and centrifuged at 500× g for 6 min. The supernatant was discarded and the pellet was resuspended in complete media (DMEM media; 10% v/v fetal bovine serum; 1% v/v penicillin/streptomycin; 0.1% v/v NGF). […]
Experiment [2] concerns μ-opioid receptor-β-arrestin2 association. The experiment can be described thus: BiFC β-arrestin2 recruitment in HEK293T cells. It is filed as cell-based. The settings on record: HEK293T coexpressing μ-opioid receptor-Yc and β-arrestin2-Yn; 10^−10 M–10^−4 M, 60 min, 37 °C; normalized by 10 μM DAMGO (100%); n = 5.
Experimental: HEK293T were cultured in DMEM (Sigma-Aldrich) supplemented with 10% v/v fetal bovine serum. […] To analyze whether activation of μ-opioid receptor would induce recruitment of β-arrestin2, the Bimolecular fluorescence complementation (BiFC) based detection of μ-opioid receptor-β-arrestin2 association was conducted. The cells were seeded at 33,000 cells/well onto poly (D-lysine)-coated Greiner 655,090 imaging plates. Plates were kept in a humidified incubator at 37 °C filled with 5% CO2 for 24 h. […] After that, cells were fixated with 3% paraformaldehyde in PBS for 10 min at room temperature. Then, cells were washed once with PBS and the cell nuclei were stained for 15 min with H33342 (2 μg/mL in PBS, Sigma, St. Louis, MO, USA). H33342 was then removed by a final PBS wash. Images (4 central sites/well) were acquired automatically on the IX Ultra confocal plate reader, using 405 nm/488 nm laser lines for H33342 and complemented YFP excitation, respectively. Data was analyzed by the use of MetaXpress software (version 5.3, Sunnyvale, CA, USA, 2013) as described by Liu and co-authors [38] and normalized by 10 μM of DAMGO (100%).
The subject of experiment [3] is μ-opioid receptors. Conditions: cited from earlier work.

Consider `C=CCN1CC[C@]23c4c5ccc(O)c4O[C@H]2C(=O)CC[C@@]3(O)[C@H]1C5` [naloxone], for which the “effect of naloxone alone on calcium current density” value in experiment [1] (10 μM naloxone) is “no significant effect on the current density”. Besides, in experiment [1] (10 μM naloxone for 30 min, then 1 μM PnPP-19), the “effect of naloxone pre-incubation on PnPP-19 inhibition of calcium current” value is “completely blocks the activity of PnPP-19”.

Turning to “[D-Ala^2, MePhe^4, Gly-ol^5] encephalin [DAMGO]”, the β-arrestin2 recruitment entry in experiment [2] was “could clearly induce β-arrestin2 recruitment”. As for `C[C@@H](Cc1ccsc1)NC(=O)NC[C@H](Cc1ccc(O)cc1)N(C)C` [PZM21], the β-arrestin2 recruitment entry in experiment [3] is given as “minimal β-arrestin2 recruitment”.

Source of the values: PMC5793130, “The Peptide PnPP-19, a Spider Toxin Derivative, Activates μ-Opioid Receptors and Modulates Calcium Channels” (Toxins, 2018).
